{"source": "patent US20240315993A1", "about": "“ANTIPARASITIC COMPOUNDS” (Intervet Inc., priority 2021, published 2024)", "key": {"[1]": {"system": "Rhipicephalus microplus tick larvae", "assay": "Tick larvae contact assay", "settings": "read-out: Tick inhibition (% of damage+dead ticks)", "method": "Tick larvae (Rhipicephalus microplus) were immersed for approximately 3 minutes in declining concentrations of a test compound (dissolved in a DMSO-emulsifier-deionized water mixture). Tick inhibition (% of damage+dead ticks per test concentration) was assessed approximately 24 hours after contact exposure. The vitality of used parasites was confirmed in negative control groups (i.e. an untreated control and a solvent control)."}, "[2]": {"system": "Adult fleas (Ctenocephalides felis)", "assay": "Flea feeding assay", "settings": "48 h, read-out: flea inhibition (% of dead+damaged fleas)", "method": "(§1) Adult fleas (Ctenocephalides felis) of defined age were fed on artificial membranes with blood spiked with declining concentrations of a test compound (dissolved in a DMSO-emulsifier-blood mixture). After approximately 48 hours of continuous feeding, flea inhibition (i.e., % of dead+damaged fleas per test concentration) was assessed. The vitality of used parasites was confirmed in negative control groups (i.e., an untreated control and a solvent control)."}, "[3]": {"system": "Adult fleas (Ctenocephalides felis)", "assay": "Flea contact assay", "settings": "48 h, read-out: flea inhibition (% of dead+damaged fleas)", "method": "as §1, with “felis)” for “felis) of defined age”, “exposed to filter paper impregnated” for “fed on artificial membranes with blood spiked”, “DMSO-emulsifier-deionized water” for “DMSO-emulsifier-blood”, “contact exposure,” for “feeding,”, “(%” for “(i.e., %”"}, "[4]": {"system": "larvae of Rhipicephalus microplus isolates with known resistance profiles", "assay": "Tick larvae resistance assay (larval immersion test, LIT)", "method": "A tick resistance assay (i.e., larval immersion test, LIT) was carried out using larvae of several Rhipicephalus microplus isolates with known resistance profiles (i.e.: fully susceptible; resistant to dieldrin, coumaphos, DDT, chlorpyriphos, flumethrin, cypermethrin, amitraz, fluazuron).\nTick larvae (Rhipicephalus microplus) were immersed for approximately 3 minutes in test compound solution. Tick mortality was assessed approximately 24 hours after contact exposure. The vitality of used parasites was confirmed in negative control groups (i.e., an untreated control and a solvent control)."}, "[5]": {"system": "Fly larvae I (Lucilia cuprina)", "assay": "Fly larvae contact/feeding assay", "settings": "48 h, read-out: Inhibition of fly larvae development", "method": "Fly larvae I (Lucilia cuprina) were grown in medium spiked with declining concentrations of a test compound (dissolved in a DMSO-emulsifier-deionized water mixture). Inhibition of fly larvae development (%) was assessed after approximately 48 hours of continuous exposure. The vitality of used parasites was confirmed in negative control groups (i.e., an untreated control and a solvent control)."}, "[6]": {"system": "Rhipicephalus sanguineus or Haemaphysalis elliptica ticks", "assay": "Dog - efficacy against ticks", "format": "in vivo", "settings": "for efficacy against ticks in dogs (conclusion): 10 mg/kg; for therapeutic efficacy against ticks (active = efficacy ≥80 percent): D2; for active against ticks up to (efficacy ≥80 percent): repeated infestations", "method": "Beagle dogs were infested (whole body) with 80 Ctenocephalides felis fleas and 50 Rhipicephalus sanguineus or Haemaphysalis elliptica ticks (sex ratio 1:1) two days before the treatment day (Day 0), and repeatedly thereafter. Dogs of treatment groups were treated with 10 mg/kg bodyweight of a test compound orally (compound weighed in gelatin capsule), topically (spot-on, DMA 92%/DEET 8%) or subcutaneously (PEG 200 90%/water for injection 10%). Dogs of the negative control group received only an empty gelatin capsule orally and the spot-on formulation excipients topically.\nCompounds with efficacy ≥80 percent were found active."}, "[7]": {"system": "Mobile stages of sea lice (pre-adults, adults of Caligus rogercresseyi)", "assay": "Adult Caligus rogercresseyi sea lice contact assay", "method": "Mobile stages of sea lice (i.e., pre-adults, adults of Caligus rogercresseyi) were exposed to seawater spiked with declining concentrations of a test compound (dissolved in a PEG sea-water mixture). Sea lice inhibition (% of dead+damaged sea lice) was assessed after approximately 1, 24 and 48 hours of continuous exposure in comparison to a negative (solvent) and untreated control group."}, "[8]": {"system": "mobile sea lice stages of Lepeophtheirus salmonis-isolates with known resistance profiles", "assay": "Sea lice resistance assay", "method": "A sea lice resistance assay was carried out using mobile sea lice stages (i.e., pre-adults, adults) of several Lepeophtheirus salmonis-isolates with known resistance profiles (i.e.: fully susceptible, resistant to azametiphos (OP), emamectin benzoate (ML), deltamethrin (SP). Sea lice were exposed to seawater spiked with declining concentrations of a test compound (dissolved in a PEG300/sea-water mixture). Sea lice inhibition (% of dead+damaged sea lice) was assessed after approximately 1, 24 and 48 hour/s of continuous exposure in comparison to a negative (solvent) control group."}, "Lepeophtheirus salmonis [9]": {"system": "Lepeophtheirus salmonis", "assay": "Salmon - in vivo efficacy against sea lice using in-feed administration", "settings": "for prophylactic efficacy against re-infestation: 1 mg/kg in feed for 7 days", "method": "Commercial fish feed pellets were coated with formulated test compound. As formulation DMSO 5%/fish oil 95% was used. Salmon (Salmo solar) were treated orally with 1 mg/kg fish biomass via coated feed for 7 consecutive days. Salmon of the negative control groups received only feed coated with the excipients of the formulation.\nFish of the therapeutic groups were infested with Lepeophtheirus salmonis copepodids twice before treatment (around day −28 and day −3).\nFish of the prophylactic groups were infested at several time points after treatment in 2-week intervals. The fish were assessed for (pre-)adult sea lice approximately 3 weeks after each re-infestation. At each assessment, all (pre-)adult sea lice were removed from the fish. […] Efficacy is expressed as a % reduction of sea lice in treated groups versus a control group using the Abbott's formula."}, "Lepeophtheirus salmonis [10]": {"system": "Lepeophtheirus salmonis", "assay": "Salmon - in vivo efficacy against sea lice using gavage administration", "settings": "5 mg/kg once by gavage, counted around day 28", "how_it_was_run": "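Salmon given a single oral gavage of 5 mg/kg in 5% DMSO/95% fish oil on day 0, with vehicle controls. L. salmonis copepodid infestations around days −28, −3 and 17; lice counted by stage around day 28, efficacy as % reduction versus control by Abbott's formula.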"}, "[11]": {"settings": "1 mg/kg fish biomass via coated feed for 7 consecutive days"}}}
{"smiles": "O=C(Nc1ccc(F)cc1F)c1cc(NC(=O)[C@H]2[C@H](c3ccc(F)c(Cl)c3)C2(Cl)Cl)ccc1Cl", "note": "[Compound 197]", "values": [{"measurement": "inhibition at 25 µM", "setting": "[1]", "result": "≥ 80", "unit": "%"}, {"measurement": "inhibition at 49 µM", "setting": "[1]", "result": 80, "unit": "%"}, {"measurement": "inhibition at 388 µM", "setting": "[1]", "result": 80, "unit": "%"}, {"measurement": "inhibition at 100 ppm", "setting": "[1]", "result": 80, "unit": "%"}, {"measurement": "inhibition at 1 ppm", "setting": "[2]", "result": 80, "unit": "%"}, {"measurement": "inhibition at 1000 ppm", "setting": "[3]", "result": 80, "unit": "%"}, {"measurement": "LC50", "setting": "[4]; isolate resistant to Coumaphos, Flumethrin, Cypermethrin", "result": 0.343, "unit": "ppm"}, {"measurement": "LC50", "setting": "[4]; isolate resistant to Coumaphos, Flumethrin, Cypermethrin, Amitraz", "result": 0.375, "unit": "ppm"}, {"measurement": "LC50", "setting": "[4]; isolate resistant to DDT, Dieldrin, Coumaphos", "result": 0.346, "unit": "ppm"}, {"measurement": "LC50", "setting": "[4]; isolate resistant to DDT, Dieldrin, Coumaphos, Chlorpyriphos", "result": 0.335, "unit": "ppm"}, {"measurement": "LC50", "setting": "[4]; isolate resistant to Dieldrin, Coumaphos, Fluazuron", "result": 0.270, "unit": "ppm"}, {"measurement": "LC50", "setting": "[4]; isolate: Fully susceptible", "result": 0.288, "unit": "ppm"}, {"measurement": "inhibition at 100 ppm", "setting": "[5]", "result": 80, "unit": "%"}, {"measurement": "efficacy against ticks in dogs (conclusion)", "setting": "[6]", "result": "therapeutic efficacy"}, {"measurement": "therapeutic efficacy against ticks (active = efficacy ≥80 percent)", "setting": "[6]; 10 mg/kg oral", "result": "active"}, {"measurement": "active against ticks up to (efficacy ≥80 percent)", "setting": "[6]; 10 mg/kg topical spot-on", "result": "70/72"}]}
{"smiles": "O=C(Nc1ncc(F)cc1F)c1cc(NC(=O)[C@H]2[C@H](c3cc(Cl)cc(Cl)c3)C2(Cl)Cl)ccc1Cl", "note": "[Compound 453]", "values": [{"measurement": "EC50", "setting": "[7]; after 24 hours", "result": 0.072, "unit": "ppb"}, {"measurement": "EC50", "setting": "[7]; after 48 hours", "result": 0.035, "unit": "ppb"}, {"measurement": "effectiveness against sensitive isolate and multi-resistant isolate", "setting": "[8]", "result": "equally effective"}, {"measurement": "EC50", "setting": "[8]; multi-resistant isolate, after 24 hours", "result": 1.96, "unit": "ppb"}, {"measurement": "EC50", "setting": "[8]; multi-resistant isolate, after 48 hours", "result": 0.64, "unit": "ppb"}, {"measurement": "EC50", "setting": "[8]; sensitive isolate, after 24 hours", "result": 1.20, "unit": "ppb"}, {"measurement": "EC50", "setting": "[8]; sensitive isolate, after 48 hours", "result": 0.29, "unit": "ppb"}, {"measurement": "therapeutic efficacy against (pre-)adult sea lice", "setting": "Lepeophtheirus salmonis [9]; [11]", "result": 100, "unit": "%"}, {"measurement": "therapeutic efficacy against juvenile sea lice", "setting": "Lepeophtheirus salmonis [9]; [11]", "result": 100, "unit": "%"}, {"measurement": "prophylactic efficacy against re-infestation", "setting": "Lepeophtheirus salmonis [9]; re-infestation D14", "result": 100, "unit": "%"}, {"measurement": "prophylactic efficacy against re-infestation", "setting": "Lepeophtheirus salmonis [9]; re-infestation D28", "result": 99.9, "unit": "%"}, {"measurement": "prophylactic efficacy against re-infestation", "setting": "Lepeophtheirus salmonis [9]; re-infestation D42", "result": 86.0, "unit": "%"}, {"measurement": "prophylactic efficacy at re-infestation on Day 17 (% reduction vs control)", "setting": "Lepeophtheirus salmonis [10]", "result": 100, "unit": "%"}, {"measurement": "efficacy against ticks in dogs (conclusion)", "setting": "[6]", "result": "therapeutic efficacy"}, {"measurement": "therapeutic efficacy against ticks (active = efficacy ≥80 percent)", "setting": "[6]; 10 mg/kg oral", "result": "active"}, {"measurement": "therapeutic efficacy against ticks (active = efficacy ≥80 percent)", "setting": "[6]; 10 mg/kg topical spot-on", "result": "active"}, {"measurement": "active against ticks up to (efficacy ≥80 percent)", "setting": "[6]; 10 mg/kg topical spot-on", "result": "70/72"}]}
